Reference: ChEMBL document CHEMBL1122963, “[3H]Batrachotoxinin A 20 alpha-benzoate binding to voltage-sensitive sodium channels: a rapid and quantitative assay for local anesthetic activity in a variety of drugs” (J Med Chem, 1985)

What was measured:
[1] = molecular target: T1, Sodium channel alpha subunits; brain (Types I, II, III) (Homo sapiens, UniProt P35498+Q99250+Q9NY46); conditions: Cavia porcellus; Cerebral cortex; at 10 µM
[2] = molecular target: T1, Sodium channel alpha subunits; brain (Types I, II, III); conditions: Cavia porcellus; Cerebral cortex; at 100 µM
[3] = molecular target: T1, Sodium channel alpha subunits; brain (Types I, II, III); conditions: Cavia porcellus; Cerebral cortex; at 10 µM; remark: listed apart in the source
[4] = molecular target: T1, Sodium channel alpha subunits; brain (Types I, II, III); test: Inhibition of binding of Batrachotoxinin [3H]BTX-B to high affinity sites on voltage dependent sodium channels in a vesicular preparation from guinea pig cerebral cortex; type: tissue-based, Cavia porcellus

T1 sequence (Q99250 whole entry, looked up, other chains not shown): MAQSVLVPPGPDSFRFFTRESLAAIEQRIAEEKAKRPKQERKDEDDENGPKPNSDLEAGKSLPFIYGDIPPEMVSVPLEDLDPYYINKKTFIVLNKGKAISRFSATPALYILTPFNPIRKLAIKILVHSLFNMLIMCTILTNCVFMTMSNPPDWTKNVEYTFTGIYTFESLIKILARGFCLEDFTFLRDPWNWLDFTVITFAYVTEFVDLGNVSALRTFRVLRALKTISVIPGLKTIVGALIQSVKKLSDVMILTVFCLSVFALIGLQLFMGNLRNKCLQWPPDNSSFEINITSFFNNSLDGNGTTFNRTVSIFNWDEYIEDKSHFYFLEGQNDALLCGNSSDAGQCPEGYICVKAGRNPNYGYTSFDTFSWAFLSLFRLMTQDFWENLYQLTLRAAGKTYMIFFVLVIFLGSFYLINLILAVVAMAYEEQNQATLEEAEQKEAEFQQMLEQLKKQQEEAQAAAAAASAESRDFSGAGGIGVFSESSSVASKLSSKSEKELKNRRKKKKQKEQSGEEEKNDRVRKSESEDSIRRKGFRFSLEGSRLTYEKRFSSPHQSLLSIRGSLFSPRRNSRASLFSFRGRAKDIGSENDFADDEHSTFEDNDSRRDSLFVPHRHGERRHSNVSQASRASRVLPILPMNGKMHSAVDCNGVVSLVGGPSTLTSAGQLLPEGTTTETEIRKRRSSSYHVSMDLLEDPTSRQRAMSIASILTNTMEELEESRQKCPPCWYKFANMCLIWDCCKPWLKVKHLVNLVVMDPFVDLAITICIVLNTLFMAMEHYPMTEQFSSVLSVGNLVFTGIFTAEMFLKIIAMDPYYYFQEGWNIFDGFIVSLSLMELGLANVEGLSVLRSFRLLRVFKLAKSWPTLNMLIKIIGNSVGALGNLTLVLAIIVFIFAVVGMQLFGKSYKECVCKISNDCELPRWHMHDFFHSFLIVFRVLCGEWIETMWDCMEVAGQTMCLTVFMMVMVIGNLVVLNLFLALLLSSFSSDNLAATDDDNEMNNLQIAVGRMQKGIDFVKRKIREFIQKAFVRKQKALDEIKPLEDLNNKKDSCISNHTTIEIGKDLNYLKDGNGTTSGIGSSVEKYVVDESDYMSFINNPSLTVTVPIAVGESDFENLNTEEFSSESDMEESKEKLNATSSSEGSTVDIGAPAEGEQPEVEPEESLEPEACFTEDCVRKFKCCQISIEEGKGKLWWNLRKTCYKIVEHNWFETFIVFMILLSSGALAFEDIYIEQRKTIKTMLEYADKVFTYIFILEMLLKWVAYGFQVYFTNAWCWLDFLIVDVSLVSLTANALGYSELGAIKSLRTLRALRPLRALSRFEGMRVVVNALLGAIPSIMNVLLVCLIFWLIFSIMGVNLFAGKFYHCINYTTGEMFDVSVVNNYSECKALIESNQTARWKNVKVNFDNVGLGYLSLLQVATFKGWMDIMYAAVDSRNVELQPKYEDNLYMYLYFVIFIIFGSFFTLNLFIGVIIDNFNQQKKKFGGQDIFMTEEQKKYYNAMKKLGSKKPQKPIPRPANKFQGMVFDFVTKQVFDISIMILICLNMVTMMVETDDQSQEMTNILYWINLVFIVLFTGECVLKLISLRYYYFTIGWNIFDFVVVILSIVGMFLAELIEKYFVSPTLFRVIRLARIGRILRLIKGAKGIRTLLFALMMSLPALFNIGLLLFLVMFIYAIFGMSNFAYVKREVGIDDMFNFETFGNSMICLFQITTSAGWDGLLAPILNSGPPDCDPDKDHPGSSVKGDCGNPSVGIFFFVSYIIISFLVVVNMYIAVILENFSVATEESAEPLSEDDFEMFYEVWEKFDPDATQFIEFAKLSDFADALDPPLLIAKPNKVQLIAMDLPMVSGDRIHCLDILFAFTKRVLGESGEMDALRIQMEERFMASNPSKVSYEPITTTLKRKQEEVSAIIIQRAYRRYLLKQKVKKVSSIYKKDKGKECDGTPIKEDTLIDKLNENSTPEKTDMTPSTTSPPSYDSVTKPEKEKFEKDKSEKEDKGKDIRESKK
T1 sequence (Q9NY46 whole entry, looked up, other chains not shown): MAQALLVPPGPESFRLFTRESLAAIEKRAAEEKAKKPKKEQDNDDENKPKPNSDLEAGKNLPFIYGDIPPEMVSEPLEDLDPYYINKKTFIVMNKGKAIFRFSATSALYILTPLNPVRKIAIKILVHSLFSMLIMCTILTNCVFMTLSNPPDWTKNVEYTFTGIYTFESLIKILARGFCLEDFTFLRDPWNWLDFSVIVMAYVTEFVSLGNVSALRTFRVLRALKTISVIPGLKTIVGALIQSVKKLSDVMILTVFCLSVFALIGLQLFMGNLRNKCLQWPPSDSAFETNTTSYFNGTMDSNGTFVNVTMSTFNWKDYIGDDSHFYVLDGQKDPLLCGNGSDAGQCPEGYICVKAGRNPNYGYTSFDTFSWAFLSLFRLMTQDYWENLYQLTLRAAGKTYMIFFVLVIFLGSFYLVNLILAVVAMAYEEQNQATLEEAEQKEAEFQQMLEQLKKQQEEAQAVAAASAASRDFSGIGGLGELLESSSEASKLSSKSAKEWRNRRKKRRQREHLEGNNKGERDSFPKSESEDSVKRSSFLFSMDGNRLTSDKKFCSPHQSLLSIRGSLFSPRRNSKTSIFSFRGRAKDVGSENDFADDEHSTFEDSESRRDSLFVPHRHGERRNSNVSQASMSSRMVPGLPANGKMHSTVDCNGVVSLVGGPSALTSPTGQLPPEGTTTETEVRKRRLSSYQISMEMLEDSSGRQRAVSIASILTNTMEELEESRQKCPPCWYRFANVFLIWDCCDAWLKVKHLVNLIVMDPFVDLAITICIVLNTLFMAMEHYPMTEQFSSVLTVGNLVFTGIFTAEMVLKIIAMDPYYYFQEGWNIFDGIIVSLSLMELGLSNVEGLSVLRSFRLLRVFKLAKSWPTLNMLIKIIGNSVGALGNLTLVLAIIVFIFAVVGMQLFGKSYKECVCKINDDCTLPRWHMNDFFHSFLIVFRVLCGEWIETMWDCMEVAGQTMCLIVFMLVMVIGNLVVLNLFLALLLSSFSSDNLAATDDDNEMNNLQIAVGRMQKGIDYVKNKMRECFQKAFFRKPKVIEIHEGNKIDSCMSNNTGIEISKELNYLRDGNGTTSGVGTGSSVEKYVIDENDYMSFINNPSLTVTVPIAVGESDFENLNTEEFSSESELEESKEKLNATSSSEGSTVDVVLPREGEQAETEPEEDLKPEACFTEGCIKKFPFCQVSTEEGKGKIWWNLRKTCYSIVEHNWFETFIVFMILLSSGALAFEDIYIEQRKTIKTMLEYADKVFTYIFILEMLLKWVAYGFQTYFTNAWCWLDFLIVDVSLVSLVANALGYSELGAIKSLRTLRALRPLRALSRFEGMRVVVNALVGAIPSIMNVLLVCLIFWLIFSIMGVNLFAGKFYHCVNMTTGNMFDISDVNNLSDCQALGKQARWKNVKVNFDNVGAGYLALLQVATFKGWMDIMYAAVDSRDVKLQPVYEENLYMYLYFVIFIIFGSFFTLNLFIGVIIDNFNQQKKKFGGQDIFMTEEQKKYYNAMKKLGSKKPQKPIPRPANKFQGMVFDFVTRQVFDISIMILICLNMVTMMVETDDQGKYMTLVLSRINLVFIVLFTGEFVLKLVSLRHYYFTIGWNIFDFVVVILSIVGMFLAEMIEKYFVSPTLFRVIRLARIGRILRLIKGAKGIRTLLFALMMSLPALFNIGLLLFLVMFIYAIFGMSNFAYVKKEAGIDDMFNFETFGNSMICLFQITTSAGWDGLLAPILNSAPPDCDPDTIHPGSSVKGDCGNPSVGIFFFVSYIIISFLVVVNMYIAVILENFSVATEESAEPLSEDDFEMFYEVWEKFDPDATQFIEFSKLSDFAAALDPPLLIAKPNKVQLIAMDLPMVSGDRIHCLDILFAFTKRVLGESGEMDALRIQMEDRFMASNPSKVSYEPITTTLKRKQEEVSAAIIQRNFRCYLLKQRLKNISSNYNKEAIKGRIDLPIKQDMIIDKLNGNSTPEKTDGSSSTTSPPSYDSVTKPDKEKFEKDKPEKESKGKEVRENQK

| Structure (SMILES) | inhibition [1] | inhibition [2] | inhibition [3] | IC50 [4] |
| --- | --- | --- | --- | --- |
| C(=C\c1ccccc1)/CN1CCN(C(c2ccccc2)c2ccccc2)CC1 [CINNARIZINE] | 94.6% |  |  |  |
| COc1cc2c(cc1OC)C1CC(=O)C(CC(C)C)CN1CC2 (configuration not stated) [TETRABENAZINE] |  | 55% | 7% | 85 µM |
| CCOC(=O)c1ccc(N)cc1 [BENZOCAINE] |  | 0% | 5.1% | 910 µM |
| CCCCOc1ccc(OCCCN2CCOCC2)cc1 [PRAMOXINE] |  | 86.3% | 29.7% | 21.2 µM |
| CC1CCCC[N+]1(C)CCCOC(=O)c1ccccc1.[I-] (configuration not stated) |  | 31.4% | 9.6% | 360 µM |
| COC(=O)[C@H]1[C@@H](OC(=O)c2ccccc2)C[C@@H]2CC[C@H]1N2C [COCAINE] |  | 63.2% | 19.5% | 49 µM |
| CCCNC(C)C(=O)Nc1ccccc1C (configuration not stated) [PRILOCAINE] |  | 58.5% | 14.2% | 54 µM |
| CCN(CC)CCNC(=O)c1ccc(N=[N+]=[N-])cc1 |  | 56.1% | 13.4% | 65 µM |
